The results in this text go back to article PMC11434796, “An Innovative Bio-Vehicle for Resveratrol and Tocopherol Based on Quinoa 11S Globulin—Nanocomplex Design and Characterization” (Pharmaceutics, 2024).

The assay concerns the target T1, quinoa 11S globulin (11S; chenopodin).
T1 construct: gene 11S globulin A; native, from defatted quinoa seed flour (seed origin Peru); alkaline extraction, pH 4.5 precipitation, size-exclusion FPLC; acidic (30-35 kDa) and basic (17-20 kDa) subunits disulfide-linked, about 55 kDa; isoform mixture not resolved; docking used amaranth 3qac as homologue
The assay is described as follows: isothermal titration calorimetry. To be noted: distilled water pH 9, 25 °C, n 0.91. Type of assay: binding, Chenopodium quinoa. The text has this:
isothermal titration calorimetry on quinoa 11S globulin (11S; chenopodin)
For orientation: ITC needs no label: the signal is the heat of the interaction.

`Oc1ccc(/C=C/c2cc(O)cc(O)c2)cc1` [RSV, 3,5,4′-trihydroxystilbene]: for the setting “protein 36.4 µM”, the dissociation constant (Kd) (in general, the equilibrium constant for the complex coming apart) worked out at 48.2 ± 1 µM. Also, where the note is “same titration as the Kd”, the “Ka (M^-1)” value is “(2.1 ± 0.3) × 10^4”.
